In ChEMBL document CHEMBL1201862, “PubChem BioAssay data set” (2004):
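Dose response: 5 concentrations. Exposure: 48 h. Format: 96-well plates. Endpoint: linear interpolation; highest concentration if not reached. GI50 = concentration required for 50% inhibition of growth.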 Calls of active or inactive are those of the source. Rule as the data show it: active = GI50 up to about 1.1 µM and inactive = higher. Where a SMILES comes first, the peptide text is derived from it. The star is where a group is joined. Boc = CC(C)(C)OC(=O)*

What was measured:
Assay in all cases: inhibition of tumour cell growth, NCI panel, 48 h
786-0 = test system: 786-0
CAKI-1 = test system: CAKI-1
HCT-116 = test system: HCT-116
HT-29 = test system: HT-29
KM12 = test system: KM12
Malme-3M = test system: Malme-3M
NCI-H460 = test system: NCI-H460
OVCAR-3 = test system: OVCAR-3
OVCAR-5 = test system: OVCAR-5
RPMI-8226 = test system: RPMI-8226
RXF 393 = test system: RXF 393
SF-539 = test system: SF-539
SK-MEL-28 = test system: SK-MEL-28
SN12C = test system: SN12C
SNB-75 = test system: SNB-75
TK-10 = test system: TK-10
UACC-257 = test system: UACC-257
UACC-62 = test system: UACC-62
UO-31 = test system: UO-31

Measured: GI50

O=C(N/N=C1\C(=O)Nc2ccc(Br)cc21)/C(O)=C/C(=O)c1ccc(Cl)cc1
inactive: 786-0 37.7 µM | CAKI-1 > 100 µM | HCT-116 47.1 µM | HT-29 > 100 µM | KM12 > 100 µM | Malme-3M > 100 µM | NCI-H460 > 100 µM | OVCAR-3 22.4 µM | OVCAR-5 97.5 µM | RPMI-8226 19.4 µM | RXF 393 31.3 µM | SF-539 71.3 µM | SK-MEL-28 51.6 µM | SN12C 67.8 µM | SNB-75 43.8 µM | TK-10 50.4 µM | UACC-257 > 100 µM | UACC-62 44.3 µM | UO-31 > 100 µM

C#CCN1C(=O)CN2C(Cl)(Cl)C2(c2ccccc2)c2cc(Cl)ccc21 (stereo unspecified)
inactive: CAKI-1 30.1 µM | HCT-116 42.2 µM | HT-29 40.9 µM | KM12 28.6 µM | Malme-3M > 100 µM | NCI-H460 54.8 µM | OVCAR-3 87.5 µM | OVCAR-5 > 100 µM | RPMI-8226 70.5 µM | RXF 393 > 100 µM | SK-MEL-28 > 100 µM | SN12C 37.2 µM | SNB-75 > 10 µM | TK-10 89.9 µM | UACC-257 36.3 µM | UO-31 68.1 µM

CC(C)Oc1cccc(N2C(n3ccnc3)=Nc3ccncc3S2(=O)=O)c1
inactive: 786-0 10.4 µM | CAKI-1 13.7 µM | HCT-116 13.6 µM | HT-29 15.9 µM | KM12 23.2 µM | Malme-3M 13.5 µM | NCI-H460 18.8 µM | OVCAR-3 9.35 µM | OVCAR-5 13.8 µM | RPMI-8226 3 µM | RXF 393 14.7 µM | SF-539 6.31 µM | SK-MEL-28 17.9 µM | SN12C 15.5 µM | SNB-75 18.7 µM | TK-10 12.1 µM | UACC-257 16.4 µM | UACC-62 15.7 µM | UO-31 21.6 µM

CCOC(=O)c1cn2c(n1)sc1cc([N+](=O)[O-])ccc12
inactive: 786-0 43.1 µM | CAKI-1 > 100 µM | HCT-116 > 100 µM | HT-29 86.1 µM | KM12 > 100 µM | Malme-3M > 100 µM | NCI-H460 > 100 µM | OVCAR-3 > 100 µM | OVCAR-5 > 100 µM | RPMI-8226 > 100 µM | RXF 393 > 100 µM | SF-539 62.7 µM | SK-MEL-28 > 100 µM | SN12C > 100 µM | SNB-75 58.2 µM | TK-10 > 100 µM | UACC-257 > 100 µM | UACC-62 > 100 µM | UO-31 > 100 µM

CC(=O)/C=C1\CC(=O)N(C)c2ccccc2N1
inactive: 786-0 > 100 µM | CAKI-1 > 100 µM | HCT-116 > 100 µM | HT-29 > 100 µM | KM12 > 100 µM | Malme-3M > 100 µM | NCI-H460 > 100 µM | OVCAR-3 > 100 µM | OVCAR-5 > 100 µM | RXF 393 > 100 µM | SF-539 > 100 µM | SK-MEL-28 > 100 µM | SN12C > 100 µM | TK-10 > 100 µM | UACC-62 > 100 µM | UO-31 > 100 µM
active: SNB-75 0.0723 µM

CCCc1cc(=O)oc2c3c(c4c(c12)OC(C)(C)CC4)O[C@@H](C)[C@H](C)[C@H]3O
inactive: 786-0 5.37 µM | CAKI-1 35.1 µM | HCT-116 8.89 µM | HT-29 8.3 µM | KM12 12.4 µM | Malme-3M 14.4 µM | NCI-H460 8.49 µM | OVCAR-3 15.7 µM | OVCAR-5 12.7 µM | RPMI-8226 4.35 µM | RXF 393 11.3 µM | SF-539 17.6 µM | SK-MEL-28 15.6 µM | SN12C 4.22 µM | SNB-75 10.3 µM | UACC-257 4.94 µM | UACC-62 9.02 µM | UO-31 6.12 µM

COC(=O)[C@H](Cc1ccc(O)cc1)NC(=O)[C@H](Cc1ccc(O)cc1)NC(=O)OC(C)(C)C (Boc-Tyr-Tyr-OMe)
inactive: 786-0 > 100 µM | CAKI-1 > 100 µM | HCT-116 > 100 µM | HT-29 > 100 µM | KM12 > 100 µM | Malme-3M > 100 µM | NCI-H460 > 100 µM | OVCAR-3 72.3 µM | OVCAR-5 > 100 µM | RXF 393 49.7 µM | SF-539 82.2 µM | SNB-75 > 100 µM | TK-10 > 100 µM | UACC-257 > 100 µM | UACC-62 > 100 µM | UO-31 > 100 µM

C=C1C(=O)O[C@@H]2C[C@@]3(C)[C@H](O)CCC(=C)[C@@H]3C[C@H]12 [ASPERILIN]
inactive: 786-0 9.66 µM | CAKI-1 5.58 µM | HCT-116 4.86 µM | HT-29 3.6 µM | KM12 3.49 µM | Malme-3M 3.11 µM | NCI-H460 6.14 µM | OVCAR-3 8.15 µM | OVCAR-5 6.12 µM | RPMI-8226 3.46 µM | SF-539 11 µM | SK-MEL-28 7.59 µM | SN12C 5.94 µM | SNB-75 3.69 µM | TK-10 12.5 µM | UACC-62 5.96 µM | UO-31 10.8 µM
